{
  "source": "ChEMBL document CHEMBL5390253",
  "about": "“Discovery of Selective and Potent Macrocyclic CDK9 Inhibitors for the Treatment of Osimertinib-Resistant Non-Small-Cell Lung Cancer” (J Med Chem, 2023)",
  "key": {"[1]": {"experiment": "Antitumor activity against patient derived #2422 lung cancer organoid assessed as inhibition of growth measured after 4 days", "type": "functional, tissue-based", "details": "Homo sapiens, 96 h"}, "[2]": {"biological_target": "Dual specificity protein kinase CLK3 (Homo sapiens) (UniProt P49761)", "sequence (P49761 whole entry, looked up)": "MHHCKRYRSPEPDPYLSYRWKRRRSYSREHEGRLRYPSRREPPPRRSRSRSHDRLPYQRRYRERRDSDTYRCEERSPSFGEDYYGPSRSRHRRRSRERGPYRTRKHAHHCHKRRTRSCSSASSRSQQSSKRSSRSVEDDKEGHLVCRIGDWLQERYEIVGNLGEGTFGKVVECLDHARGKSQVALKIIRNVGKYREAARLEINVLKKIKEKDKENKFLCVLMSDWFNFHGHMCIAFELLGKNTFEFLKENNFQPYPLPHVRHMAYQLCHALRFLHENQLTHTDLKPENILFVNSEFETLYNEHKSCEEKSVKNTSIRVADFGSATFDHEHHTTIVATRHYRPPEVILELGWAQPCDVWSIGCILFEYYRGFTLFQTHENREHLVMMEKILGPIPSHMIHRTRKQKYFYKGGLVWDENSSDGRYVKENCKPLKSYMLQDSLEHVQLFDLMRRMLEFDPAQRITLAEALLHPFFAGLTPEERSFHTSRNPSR", "experiment": "Inhibition of CLK3 (unknown origin) at 100 nM preincubated for 10 mins followed by substrate addition and measured after 60 mins in presence of ATP by ADP-Glo reagent based assay relative to control", "details": "time 70.0 min"}, "[3]": {"experiment": "Induction of apoptosis in human Osimertinib-resistant NCI-H1975 cell assessed as late apoptotic cells at 125 nM measured after 16 hrs in presence of osimertinib by Annexin V-FITC and PI staining based analysis (Rvb =2.84%)", "type": "functional"}, "[4]": {"biological_target": "Cyclin-Y/Cyclin-dependent kinase 16 (Homo sapiens) (UniProt Q00536+Q8ND76)", "experiment": "Inhibition of CDK16/cyclin Y (unknown origin) at 200 nM preincubated for 10 mins followed by substrate addition and measured after 60 mins in presence of ATP by ADP-Glo reagent based assay relative to control", "type": "protein-complex assay", "details": "time 70.0 min"}, "[5]": {"system": "NCI-H1975", "experiment": "Antiproliferative activity against human NCI-H1975 cells incubated for 72 hrs by MTT assay", "type": "functional, cell-based", "details": "NCI-H1975, 72 h"}, "[6]": {"experiment": "Half life in Sprague-Dawley rat at 2 mg/kg, iv measured upto 24 hrs", "type": "ADME, organism-based", "details": "in vivo"}, "[7]": {"biological_target": "Cyclin-dependent kinase 9 (Homo sapiens) (UniProt P50750)", "sequence (P50750 whole entry)": "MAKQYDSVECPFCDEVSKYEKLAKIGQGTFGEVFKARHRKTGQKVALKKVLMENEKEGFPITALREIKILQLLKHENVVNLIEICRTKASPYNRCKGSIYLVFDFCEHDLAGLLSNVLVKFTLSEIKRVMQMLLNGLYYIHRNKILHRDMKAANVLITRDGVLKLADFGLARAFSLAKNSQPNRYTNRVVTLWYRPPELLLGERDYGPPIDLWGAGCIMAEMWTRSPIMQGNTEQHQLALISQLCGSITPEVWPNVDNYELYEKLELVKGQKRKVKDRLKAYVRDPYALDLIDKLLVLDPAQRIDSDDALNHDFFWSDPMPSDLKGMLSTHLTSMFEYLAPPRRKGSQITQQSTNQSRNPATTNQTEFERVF", "experiment": "Inhibition of CDK9 in human Osimertinib-resistant NCI-H1975 cell assessed as suppression of p-RNAP II phosphorylation at Ser2 residue incubated for 8 hrs by Western blot analysis", "type": "cell-based", "details": "dose 0.05-1 µM"}, "[8]": {"experiment": "Toxicity in ICR mouse assessed as effect on body weight loss at 1000 mg/kg, po measured for 8 to 9 days", "type": "organism-based", "details": "in vivo, time 8-9 day"}, "[9]": {"experiment": "Antiproliferative activity against human Osimertinib-resistant NCI-H1975 cell assessed as cell growth inhibition incubated for 72 hrs by MTT assay", "type": "functional, cell-based", "details": "NCI-H1975, 72 h"}, "[10]": {"experiment": "Antitumor activity against patient derived #2862 lung cancer organoid assessed as inhibition of growth measured after 4 days", "type": "functional, tissue-based", "details": "Homo sapiens, 96 h"}, "[11]": {"experiment": "Oral bioavailability in Sprague-Dawley rat at 20 mg/kg measured upto 24 hrs", "type": "ADME, organism-based", "details": "in vivo"}, "[12]": {"experiment": "Toxicity in ICR mouse assessed as morphological changes in kidney at 1000 mg/kg, po measured after 9 days by H and E staining based analysis", "type": "organism-based", "details": "in vivo, 216 h, time 9 day"}, "[13]": {"biological_target": "Interleukin-1 receptor-associated kinase 1 (Homo sapiens) (UniProt P51617)", "sequence (P51617 whole entry, looked up)": "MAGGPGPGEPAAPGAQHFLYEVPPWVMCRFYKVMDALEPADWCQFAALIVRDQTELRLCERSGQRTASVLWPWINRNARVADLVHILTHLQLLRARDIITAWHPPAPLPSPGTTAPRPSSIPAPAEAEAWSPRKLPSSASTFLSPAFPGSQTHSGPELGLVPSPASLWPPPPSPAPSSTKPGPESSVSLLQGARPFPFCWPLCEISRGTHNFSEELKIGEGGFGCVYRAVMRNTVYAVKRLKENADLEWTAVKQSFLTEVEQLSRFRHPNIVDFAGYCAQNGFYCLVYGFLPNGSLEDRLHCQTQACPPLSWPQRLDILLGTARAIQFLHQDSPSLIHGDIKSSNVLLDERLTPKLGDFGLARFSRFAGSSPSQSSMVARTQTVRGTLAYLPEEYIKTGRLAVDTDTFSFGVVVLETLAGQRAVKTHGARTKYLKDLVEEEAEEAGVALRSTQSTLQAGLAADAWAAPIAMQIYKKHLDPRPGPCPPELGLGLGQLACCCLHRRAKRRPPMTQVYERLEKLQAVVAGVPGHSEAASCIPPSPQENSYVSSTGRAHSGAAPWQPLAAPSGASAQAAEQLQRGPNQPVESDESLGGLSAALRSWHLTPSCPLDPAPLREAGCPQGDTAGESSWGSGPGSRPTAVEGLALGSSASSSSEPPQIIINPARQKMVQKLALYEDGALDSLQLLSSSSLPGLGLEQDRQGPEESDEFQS", "experiment": "Inhibition of IRAK1 (unknown origin) at 500 nM preincubated for 10 mins followed by substrate addition and measured after 60 mins in presence of ATP by ADP-Glo reagent based assay relative to control", "details": "time 70.0 min"}, "[14]": {"experiment": "Toxicity in ICR mouse assessed as abnormalities in lung at 1000 mg/kg, po measured after 9 days by H and E staining based analysis", "type": "organism-based", "details": "in vivo, 216 h, time 9 day"}, "[15]": {"biological_target": "T1, Cyclin-dependent kinase 5/CDK5 activator 1 (Homo sapiens) (UniProt Q00535+Q15078)", "T1 sequence (Q00535 whole entry)": "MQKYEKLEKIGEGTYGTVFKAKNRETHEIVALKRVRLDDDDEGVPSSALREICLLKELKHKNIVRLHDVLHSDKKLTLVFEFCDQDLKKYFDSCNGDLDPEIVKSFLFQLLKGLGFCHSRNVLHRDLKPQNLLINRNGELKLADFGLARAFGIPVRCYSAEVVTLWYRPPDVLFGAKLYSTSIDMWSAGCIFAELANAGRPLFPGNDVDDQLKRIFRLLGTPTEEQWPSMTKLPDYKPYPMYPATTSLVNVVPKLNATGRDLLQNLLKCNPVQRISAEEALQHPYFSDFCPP", "T1 sequence (Q15078 99-307 partner limits assumed)": "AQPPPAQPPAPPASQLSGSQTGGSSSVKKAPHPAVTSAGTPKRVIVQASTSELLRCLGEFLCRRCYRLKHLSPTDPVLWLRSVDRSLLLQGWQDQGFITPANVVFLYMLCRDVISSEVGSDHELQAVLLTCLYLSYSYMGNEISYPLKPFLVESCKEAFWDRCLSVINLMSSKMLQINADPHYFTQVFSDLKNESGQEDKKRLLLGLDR", "experiment": "Inhibition of CDK5/p25NCK (unknown origin) at 200 nM preincubated for 10 mins followed by substrate addition and measured after 60 mins in presence of ATP by ADP-Glo reagent based assay relative to control", "type": "protein-complex assay", "details": "time 70.0 min"}, "[16]": {"biological_target": "Receptor-type tyrosine-protein kinase FLT3 (Homo sapiens) (UniProt P36888)", "sequence (P36888 whole entry)": "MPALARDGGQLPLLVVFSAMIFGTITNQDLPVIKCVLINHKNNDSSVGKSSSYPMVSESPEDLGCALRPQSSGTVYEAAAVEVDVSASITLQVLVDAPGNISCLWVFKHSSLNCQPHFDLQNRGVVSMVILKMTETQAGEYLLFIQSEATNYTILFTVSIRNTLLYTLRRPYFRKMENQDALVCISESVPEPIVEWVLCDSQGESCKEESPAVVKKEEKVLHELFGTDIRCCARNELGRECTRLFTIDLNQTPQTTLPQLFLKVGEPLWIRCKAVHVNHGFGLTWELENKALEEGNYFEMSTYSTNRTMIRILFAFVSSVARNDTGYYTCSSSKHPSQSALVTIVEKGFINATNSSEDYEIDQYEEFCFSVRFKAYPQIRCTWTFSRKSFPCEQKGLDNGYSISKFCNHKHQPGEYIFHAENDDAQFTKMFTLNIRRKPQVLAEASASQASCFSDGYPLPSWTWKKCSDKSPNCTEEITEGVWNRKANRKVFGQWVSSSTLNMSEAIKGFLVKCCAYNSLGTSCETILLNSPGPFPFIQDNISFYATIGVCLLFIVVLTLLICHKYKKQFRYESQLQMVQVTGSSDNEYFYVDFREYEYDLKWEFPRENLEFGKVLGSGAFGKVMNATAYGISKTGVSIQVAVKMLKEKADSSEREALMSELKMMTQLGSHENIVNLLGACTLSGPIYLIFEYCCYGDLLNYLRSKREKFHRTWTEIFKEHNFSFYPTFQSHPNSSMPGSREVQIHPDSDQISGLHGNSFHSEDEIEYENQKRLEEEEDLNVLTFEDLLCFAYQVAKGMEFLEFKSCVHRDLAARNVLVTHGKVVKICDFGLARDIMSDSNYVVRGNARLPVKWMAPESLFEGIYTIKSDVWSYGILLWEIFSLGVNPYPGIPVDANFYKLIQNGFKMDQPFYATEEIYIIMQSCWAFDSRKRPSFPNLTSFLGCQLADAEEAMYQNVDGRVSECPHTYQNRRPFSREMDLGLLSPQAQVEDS", "experiment": "Inhibition of FLT3 (unknown origin) at 100 nM preincubated for 10 mins followed by substrate addition and measured after 60 mins in presence of ATP by ADP-Glo reagent based assay relative to control", "details": "time 70.0 min"}, "[17]": {"experiment": "Induction of apoptosis in human Osimertinib-resistant NCI-H1975 cell assessed as viable cells at 125 nM measured after 16 hrs in presence of osimertinib by Annexin V-FITC and PI staining based analysis (reference value: 94.9%)", "type": "functional", "details": "read-out: Activity"}, "[18]": {"biological_target": "Cyclin-C/Cyclin-dependent kinase 19 (Homo sapiens) (UniProt Q9BWU1+P24863)", "experiment": "Inhibition of CDK19/cyclin C (unknown origin) at 200 nM preincubated for 10 mins followed by substrate addition and measured after 60 mins in presence of ATP by ADP-Glo reagent based assay relative to control", "type": "protein-complex assay", "details": "time 70.0 min"}, "[19]": {"system": "A549", "experiment": "Antiproliferative activity against human A549 cells incubated for 72 hrs by MTT assay", "type": "functional, cell-based", "details": "A549, 72 h"}, "[20]": {"system": "PC-9", "experiment": "Antiproliferative activity against human PC-9 cells incubated for 72 hrs by MTT assay", "type": "functional, cell-based", "details": "PC-9, 72 h"}, "[21]": {"experiment": "Induction of apoptosis in human Osimertinib-resistant NCI-H1975 cell assessed as early apoptotic cells at 500 nM measured after 16 hrs by Annexin V-FITC and PI staining based analysis (reference value: 1.78%)", "type": "functional"}, "[22]": {"experiment": "Downregulation of Mcl-1 in human NCI-H1975 cells at 500 nM relative to control", "type": "functional"}, "[23]": {"system": "NCI-H1975", "experiment": "Downregulation of Mcl-1 level in human Osimertinib-resistant NCI-H1975 cell at 500 nM measured after 2 hrs by Western blotting analysis", "type": "functional, cell-based"}, "[24]": {"biological_target": "Cyclin-dependent kinase 4/cyclin D1 (Homo sapiens) (UniProt P11802+P24385)", "experiment": "Inhibition of CDK4/Cyclin D1 (unknown origin) at 200 nM preincubated for 10 mins followed by substrate addition and measured after 60 mins in presence of ATP by ADP-Glo reagent based assay relative to control", "type": "protein-complex assay", "details": "time 70.0 min"}, "[25]": {"experiment": "Induction of apoptosis in human Osimertinib-resistant NCI-H1975 cell assessed as necrotic cells at 500 nM measured after 16 hrs by Annexin V-FITC and PI staining based analysis (reference value: 0.50%)", "type": "functional"}, "[26]": {"system": "NCI-H596", "experiment": "Antiproliferative activity against human NCI-H596 cells incubated for 72 hrs by MTT assay", "type": "functional, cell-based", "details": "NCI-H596, 72 h"}, "[27]": {"experiment": "Induction of apoptosis in human Osimertinib-resistant NCI-H1975 cell assessed as early apoptotic cells at 125 nM measured after 16 hrs by Annexin V-FITC and PI staining based analysis (Rvb =1.78%)", "type": "functional"}, "[28]": {"biological_target": "CDK9/cyclin T1 (Homo sapiens) (UniProt O60563+P50750)", "experiment": "Inhibition of CDK9/cyclin T1 (unknown origin) at 200 nM preincubated for 10 mins followed by substrate addition and measured after 60 mins in presence of ATP by ADP-Glo reagent based assay relative to control", "type": "protein-complex assay", "details": "time 70.0 min"}, "[29]": {"biological_target": "CDK4/Cyclin D3 (Homo sapiens) (UniProt P11802+P30281)", "experiment": "Inhibition of CDK4/Cyclin D3 (unknown origin) at 200 nM preincubated for 10 mins followed by substrate addition and measured after 60 mins in presence of ATP by ADP-Glo reagent based assay relative to control", "type": "protein-complex assay", "details": "time 70.0 min"}, "[30]": {"experiment": "Toxicity in ICR mouse assessed as morphological changes in liver at 1000 mg/kg, po measured after 9 days by H and E staining based analysis", "type": "organism-based", "details": "in vivo, 216 h, time 9 day"}, "[31]": {"biological_target": "T1, Cyclin-dependent kinase 5/CDK5 activator 1 (Homo sapiens)", "experiment": "Inhibition of CDK5/p35NCK (unknown origin) at 200 nM preincubated for 10 mins followed by substrate addition and measured after 60 mins in presence of ATP by ADP-Glo reagent based assay relative to control", "type": "protein-complex assay", "details": "time 70.0 min"}, "[32]": {"experiment": "Inhibition of colony formation in human Osimertinib-resistant NCI-H1975 cell assessed as inhibition of cell growth at 125 nM measured after 2 weeks by crystal violet staining based analysis relative to control", "type": "functional", "details": "NCI-H1975, 336 h"}},
  "note": "Active and inactive are the calls of the source. No cut-off for these calls is given here.",
  "data": [
    {"smiles": "O=C(NCCN1CCOCC1)c1ccc2cc1OCCCCCCOc1cc(ccc1F)-c1nc(ncc1F)N2", "values": [
      {"measurement": "IC50", "setting": "[1]", "result": "< 80", "unit": "nM"},
      {"measurement": "inhibition", "setting": "[2]", "result": 5.7, "unit": "%"},
      {"measurement": "Activity", "setting": "[3]", "result": 18.2, "unit": "%"},
      {"measurement": "inhibition", "setting": "[4]", "result": 25.9, "unit": "%"},
      {"measurement": "IC50", "setting": "[5]", "result": 174, "unit": "nM"},
      {"measurement": "half-life", "setting": "[6]", "result": 1.8, "unit": "h"},
      {"measurement": "inhibition", "setting": "[7]", "result": "Dose-Dependent Effect"},
      {"measurement": "Activity", "setting": "[8]", "result": "Non-Toxic"},
      {"measurement": "IC50", "setting": "[9]", "result": 190, "unit": "nM"},
      {"measurement": "IC50", "setting": "[10]", "result": 940, "unit": "nM"},
      {"measurement": "bioavailability", "setting": "[11]", "result": 8, "unit": "%"},
      {"measurement": "Activity", "setting": "[12]", "result": "Non-Toxic"},
      {"measurement": "inhibition", "setting": "[13]", "result": 73.5, "unit": "%"},
      {"measurement": "Activity", "setting": "[14]", "result": "Non-Toxic"},
      {"measurement": "inhibition", "setting": "[15]", "result": 38.9, "unit": "%"},
      {"measurement": "inhibition", "setting": "[16]", "result": 21.2, "unit": "%"},
      {"measurement": "viability at 0.125 µM", "setting": "[17]", "result": 78.3, "unit": "%"},
      {"measurement": "inhibition", "setting": "[18]", "result": 11.5, "unit": "%"},
      {"measurement": "IC50", "setting": "[19]", "result": 409, "unit": "nM"},
      {"measurement": "IC50", "setting": "[20]", "result": 126, "unit": "nM"},
      {"measurement": "Activity", "setting": "[21]", "result": 14.4, "unit": "%"},
      {"measurement": "Activity", "setting": "[22]", "result": 75.6, "unit": "%"},
      {"measurement": "Activity", "setting": "[23]", "result": "Active"},
      {"measurement": "inhibition", "setting": "[24]", "result": 32.1, "unit": "%"},
      {"measurement": "Activity", "setting": "[25]", "result": 2.92, "unit": "%"},
      {"measurement": "IC50", "setting": "[26]", "result": 332, "unit": "nM"},
      {"measurement": "Activity", "setting": "[27]", "result": 4.7, "unit": "%"},
      {"measurement": "inhibition", "setting": "[28]", "result": 99.3, "unit": "%"},
      {"measurement": "inhibition", "setting": "[29]", "result": 50.1, "unit": "%"},
      {"measurement": "Activity", "setting": "[30]", "result": "Non-Toxic"},
      {"measurement": "inhibition", "setting": "[31]", "result": 16.3, "unit": "%"},
      {"measurement": "inhibition at 0.125 µM", "setting": "[32]", "result": 100, "unit": "%"}
    ]}
  ]
}
